The text below walks through data of patent publication US20260001889A1, “COMPOSITIONS USEFUL FOR MODULATING SPLICING” (Skyhawk Therapeutics, Inc., priority 2022, published 2026).

pEC50, pIC50: −log10 of the molar value.

The subject of one test is total ATXN3 protein. As to the kind of experiment: ATXN3 Total Protein Assay (Mesoscale Discovery, SK-N-MC cells). It is filed as cell-based, Human. The note with it: incubation for 48 hours, MSD assay. A digest of the protocol:
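Readout: MSD electrochemiluminescence immunoassay of lysates, calibrated with recombinant ATXN3 and using mouse/rabbit anti-ATXN3 antibody pair. Cells (SK-N-MC, human) were exposed for 48 h to compound doses between 30 μM and 0.6 nM.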

The subject of test [1] is ATXN3 transcripts containing exon 4. As to the kind of experiment: ATXN3 Quantitative Splicing Assay (qPCR, E4E5 primers/probe). Conditions: Homo sapiens, SK-N-MC cells, compounds for 24 h. It is filed as cell-based. The procedure, abridged: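 Exon 4-containing ATXN3 transcripts are quantified by TaqMan qPCR (E4E5 primers/probe) on cell-lysate cDNA, with total ATXN3 from the E8E9 set. Source cells: human neuroblastoma SK-N-MC, exposed for 24 h to compound at 30 μM down to 0.6 nM.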
On the technique in general: Quantitative PCR measures a nucleic acid by following its amplification.

A further test has as its system ATXN3-HiBiT protein. The test can be described thus: ATXN3 Total Protein Assay (Kelly-ATXN3-HiBiT luminescence). It is filed as cell-based. The note with it: Kelly-ATXN3-HiBiT cells, 48 h after addition of compound. A digest of the protocol: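 Endogenous ATXN3-HiBiT protein in knock-in Kelly neuroblastoma cells measured by lytic HiBiT luminescence 48 h post-compound (added 24 h after seeding 2000 cells/well). Values are fold changes relative to DMSO, with viability from a parallel CellTiter-Glo plate.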
A general note: HiBiT is a short tag that completes a luciferase, so light tracks the accessible tagged protein.

A word on the pIC50: it is the negative decadic logarithm of the IC50, by convention in mol/L. For orientation: pEC50 means the EC50 on a negative log10 scale, so that one unit is a factor of ten. For the compound `C[C@H](F)[C@H](N)Cc1oc2c(NCc3cccs3)c(F)c(Cl)nc2c1Br` [Compound 277, 2-[(2R,3S)-2-amino-3-fluorobutyl]-3-bromo-5-chloro-6-fluoro-7-thenylamino-1-oxa-4-azaindene], the pIC50 (in the test on total ATXN3 protein; in test [1]) was 5.30 to 6.30 throughout. The pEC50 in the test with ATXN3-HiBiT protein is 5.30 to 6.30.
On to `[2H]C([2H])([2H])OC[C@H](N)Cc1oc2c(NCc3cccs3)cc(Cl)nc2c1Br` [Compound 157, 2-[(R)-2-amino-3-(2H3)methoxypropyl]-3-bromo-5-chloro-7-thenylamino-1-oxa-4-azaindene], for which the pIC50 (with total ATXN3 protein; in test [1]) was 7.00 to 11.00 each time. This compound also had a pEC50 in the test on ATXN3-HiBiT protein of 7.00 to 11.00.
In the case of `C[C@H](F)[C@H](N)Cc1oc2c(NCc3ccco3)cc(Cl)nc2c1Br` [Compound 118, 2-[(2R,3S)-2-amino-3-fluorobutyl]-3-bromo-5-chloro-7-(furfurylamino)-1-oxa-4-azaindene], the pIC50 (in the test with total ATXN3 protein; in test [1]) was 7.00 to 11.00 each time. Besides, the pEC50 in the test with ATXN3-HiBiT protein is 7.00 to 11.00.
Take `CC(C)(N)Cc1oc2c(NCc3cccs3)cc(Cl)nc2c1Br` [Compound 226, 2-(2-amino-2-methylpropyl)-3-bromo-5-chloro-7-thenylamino-1-oxa-4-azaindene]: the pIC50 (in the test with total ATXN3 protein; in test [1]) was 5.30 to 6.30 in each case. The compound also gave a pEC50 with ATXN3-HiBiT protein of 5.30 to 6.30.
For `C#Cc1c(C[C@@H](N)[C@H](C)F)oc2c(NCc3ccco3)cc(Cl)nc12` [Compound 122, 2-[(2R,3S)-2-amino-3-fluorobutyl]-5-chloro-3-ethynyl-7-(furfurylamino)-1-oxa-4-azaindene], the negative-log IC50 (pIC50) (in the test with total ATXN3 protein; in test [1]) was 7.00 to 11.00 throughout. The compound further showed a pEC50 in the test on ATXN3-HiBiT protein of 7.00 to 11.00.
As to `C[C@H](F)[C@H](N)Cc1oc2c(NCc3ccncc3F)cc(Cl)nc2c1Cl` [Compound 149, 2-[(2R,3S)-2-amino-3-fluorobutyl]-3,5-dichloro-7-{[(3-fluoro-4-pyridyl)methyl]amino}-1-oxa-4-azaindene], the negative-log IC50 (pIC50) (in the test with total ATXN3 protein; in test [1]) was 6.30 to 7.00 throughout. This compound also gave a pEC50 in the test on ATXN3-HiBiT protein of 6.30 to 7.00.
`C[C@H](F)[C@H](N)Cc1oc2c(NCc3nccs3)cc(Cl)nc2c1Cl` [Compound 109, 2-[(2R,3S)-2-amino-3-fluorobutyl]-3,5-dichloro-7-{[(1,3-thiazol-2-yl)methyl]amino}-1-oxa-4-azaindene]: the negative logarithm of the IC50 (pIC50) (with total ATXN3 protein; in test [1]) was 7.00 to 11.00 in each case. Besides, in the test with ATXN3-HiBiT protein, the pEC50 is 6.30 to 7.00.
On to `Cc1c(C[C@H](C)N)oc2c(NCc3cccs3)cc(Cl)nc12` [Compound 11, 2-[(S)-2-aminopropyl]-5-chloro-3-methyl-7-thenylamino-1-oxa-4-azaindene], for which the pIC50 (in the test with total ATXN3 protein; in test [1]) was 6.30 to 7.00 each time. The same compound showed a negative-log EC50 (pEC50) in the test with ATXN3-HiBiT protein of 7.00 to 11.00.
As for `Cc1c(C[C@@H](N)[C@H](C)F)oc2c(NCc3cccs3)cc(Cl)nc12` [Compound 41, 2-[(2R,3S)-2-amino-3-fluorobutyl]-5-chloro-3-methyl-7-thenylamino-1-oxa-4-azaindene], the pIC50 (in the test with total ATXN3 protein; in test [1]) was 7.00 to 11.00 each time. This compound gave a pEC50 in the test with ATXN3-HiBiT protein of 7.00 to 11.00.
In the case of `C[C@H](N)C(F)(F)c1oc2c(NCc3cccs3)cc(Cl)nc2c1Cl` [Compound 189, 2-[(S)-2-amino-1,1-difluoropropyl]-3,5-dichloro-7-thenylamino-1-oxa-4-azaindene], the pIC50 (in the test on total ATXN3 protein; in test [1]) was 6.30 to 7.00 each time. Further, in the test with ATXN3-HiBiT protein, the pEC50 is 6.30 to 7.00.
`C[C@H](F)[C@H](N)Cc1oc2c(NCc3sccc3F)cc(Cl)nc2c1Cl` [Compound 140, 2-[(2R,3S)-2-amino-3-fluorobutyl]-3,5-dichloro-7-{[(3-fluoro-2-thienyl)methyl]amino}-1-oxa-4-azaindene]: the pIC50 (in the test on total ATXN3 protein; in test [1]) was 6.30 to 7.00 each time. Besides, the pEC50 in the test with ATXN3-HiBiT protein was 6.30 to 7.00.
Regarding `C=Cc1c(C[C@H](C)N)oc2c(NCc3cccs3)cc(Cl)nc12` [Compound 194, 2-[(S)-2-aminopropyl]-5-chloro-7-thenylamino-3-vinyl-1-oxa-4-azaindene], the pIC50 (in the test with total ATXN3 protein; in test [1]) was 5.30 to 6.30 each time. This compound also had a pEC50 with ATXN3-HiBiT protein of 6.30 to 7.00.
On to `C[C@H](N)Cc1oc2c(NCc3cccs3)cc(Cl)nc2c1-c1ncc[nH]1` [Compound 313, 2-[(2S)-2-aminopropyl]-5-chloro-3-(1H-imidazol-2-yl)-N-(thiophen-2-ylmethyl)furo[3,2-b]pyridin-7-amine], for which the negative-log IC50 (pIC50) is 5.00 to 5.30 with total ATXN3 protein and 4.40 to 5.00 in test [1]. The compound also showed a pEC50 in the test on ATXN3-HiBiT protein of 4.40 to 5.00.
With `N[C@H](Cc1oc2c(NCc3ccco3)cc(Cl)nc2c1Br)C(F)F` [Compound 243, 2-[(R)-2-amino-3,3-difluoropropyl]-3-bromo-5-chloro-7-(furfurylamino)-1-oxa-4-azaindene], the pIC50 is 6.30 to 7.00 in the test on total ATXN3 protein and 5.30 to 6.30 in test [1]. This compound showed a pEC50 in the test with ATXN3-HiBiT protein of 5.30 to 6.30.
On to `NC1(Cc2oc3c(NCc4cccs4)cc(Cl)nc3c2Br)CC1` [Compound 227, 2-[(1-aminocyclopropyl)methyl]-3-bromo-5-chloro-N-(thiophen-2-ylmethyl)furo[3,2-b]pyridin-7-amine], for which the pIC50 (in the test on total ATXN3 protein; in test [1]) was 5.30 to 6.30 each time. Further, the pEC50 in the test with ATXN3-HiBiT protein was 5.30 to 6.30.
For `Cc1cnc(-c2c(C[C@H](C)N)oc3c(NCc4cccs4)cc(Cl)nc23)o1` [Compound 322, 2-[(S)-2-aminopropyl]-5-chloro-3-(5-methyl-1,3-oxazol-2-yl)-7-thenylamino-1-oxa-4-azaindene], the pIC50 (with total ATXN3 protein; in test [1]) was 5.30 to 6.30 each time. For the same compound, the pEC50 in the test on ATXN3-HiBiT protein is 5.30 to 6.30.
On to `N[C@H](Cc1oc2c(NCc3ccco3)cc(Cl)nc2c1Br)CC(F)(F)F` [Compound 26, 2-[(R)-2-amino-4,4,4-trifluorobutyl]-3-bromo-5-chloro-7-(furfurylamino)-1-oxa-4-azaindene], for which the pIC50 (in the test on total ATXN3 protein; in test [1]) was 6.30 to 7.00 each time. For the same compound, the pEC50 in the test on ATXN3-HiBiT protein was 5.30 to 6.30.
`CC[C@H](N)Cc1oc2c(NCc3cccs3)cc(Cl)nc2c1Br` [Compound 169, 2-[(S)-2-aminobutyl]-3-bromo-5-chloro-7-thenylamino-1-oxa-4-azaindene]: the pIC50 in the test with total ATXN3 protein is 6.30 to 7.00; in test [1], 5.30 to 6.30. The compound also had a negative-log EC50 (pEC50) in the test on ATXN3-HiBiT protein of 6.30 to 7.00.
For the compound `C[C@H](N)Cc1oc2c(NCc3ncco3)cc(Cl)nc2c1Br` [Compound 124, 2-[(2S)-2-aminopropyl]-3-bromo-5-chloro-N-(1,3-oxazol-2-ylmethyl) furo[3,2-b]pyridin-7-amine], the pIC50 (with total ATXN3 protein; in test [1]) was 5.30 to 6.30 in each case. This compound showed a pEC50 in the test with ATXN3-HiBiT protein of 5.30 to 6.30.
`C[C@H](N)Cc1oc2c(NCc3cccs3)cc(Cl)nc2c1-c1ccn(C)n1` [Compound 317, 2-[(S)-2-aminopropyl]-5-chloro-3-(1-methyl-3-pyrazolyl)-7-thenylamino-1-oxa-4-azaindene]: the pIC50 (in the test with total ATXN3 protein; in test [1]) was 4.40 to 5.00 throughout. This compound had a pEC50 in the test on ATXN3-HiBiT protein of 5.30 to 6.30.
With `C/C=C\c1c(C[C@H](C)N)oc2c(NCc3cccs3)cc(Cl)nc12` [Compound 254, 2-[(S)-2-aminopropyl]-3-[(Z)-1-propenyl]-5-chloro-7-thenylamino-1-oxa-4-azaindene], the negative logarithm of the IC50 (pIC50) (in the test on total ATXN3 protein; in test [1]) was 5.30 to 6.30 each time. Also, the pEC50 in the test on ATXN3-HiBiT protein is 5.30 to 6.30.
For `COC[C@H](N)Cc1oc2c(NCc3cccs3)cc(Cl)nc2c1Br` [Compound 37, 2-[(R)-2-amino-3-methoxypropyl]-3-bromo-5-chloro-7-thenylamino-1-oxa-4-azaindene], the pIC50 (in the test with total ATXN3 protein; in test [1]) was 7.00 to 11.00 throughout. This compound also gave a pEC50 in the test on ATXN3-HiBiT protein of 7.00 to 11.00.
`N[C@@H](CF)Cc1oc2c(NCc3cccs3)cc(Cl)nc2c1Br` [Compound 58, 2-[(R)-2-amino-3-fluoropropyl]-3-bromo-5-chloro-7-thenylamino-1-oxa-4-azaindene]: the pIC50 (in the test on total ATXN3 protein; in test [1]) was 7.00 to 11.00 throughout. This compound also had a pEC50 in the test with ATXN3-HiBiT protein of 7.00 to 11.00.
As for `C#Cc1c(C[C@H](C)N)oc2c(NCc3nccs3)cc(Cl)nc12` [Compound 62, 2-[(S)-2-aminopropyl]-5-chloro-3-ethynyl-7-{[(1,3-thiazol-2-yl)methyl]amino}-1-oxa-4-azaindene], the negative-log IC50 (pIC50) (in the test with total ATXN3 protein; in test [1]) was 6.30 to 7.00 throughout. Further, the pEC50 in the test on ATXN3-HiBiT protein was 7.00 to 11.00.
With `C[C@H](F)[C@H](N)Cc1oc2c(NCc3ccc(F)s3)cc(Cl)nc2c1Br` [Compound 94, 2-[(2R,3S)-2-amino-3-fluorobutyl]-3-bromo-5-chloro-7-{[(5-fluoro-2-thienyl)methyl]amino}-1-oxa-4-azaindene], the pIC50 (in the test on total ATXN3 protein; in test [1]) was 6.30 to 7.00 throughout. The compound also showed a pEC50 with ATXN3-HiBiT protein of 6.30 to 7.00.
`C[C@@H](O)[C@H](N)Cc1oc2c(NCc3cccs3)cc(Cl)nc2c1Br` [Compound 126, (2R,3R)-3-amino-4-(3-bromo-5-chloro-7-thenylamino-1-oxa-4-aza-2-indenyl)-2-butanol]: the pIC50 (in the test on total ATXN3 protein; in test [1]) was 6.30 to 7.00 each time. The pEC50 with ATXN3-HiBiT protein is 6.30 to 7.00.
Turning to `Cc1c(C[C@@H](N)CCF)oc2c(NCc3cccs3)cc(Cl)nc12` [Compound 31, 2-[(2R)-2-amino-4-fluorobutyl]-5-chloro-3-methyl-N-(thiophen-2-ylmethyl)furo[3,2-b]pyridin-7-amine], the pIC50 (with total ATXN3 protein; in test [1]) was 6.30 to 7.00 in each case. Also, the pEC50 in the test with ATXN3-HiBiT protein was 6.30 to 7.00.
As to `C[C@@H](F)[C@H](N)Cc1oc2c(NCc3cccs3)cc(Cl)nc2c1Br` [Compound 44, 2-[(2R,3R)-2-amino-3-fluorobutyl]-3-bromo-5-chloro-7-thenylamino-1-oxa-4-azaindene], the pIC50 (in the test on total ATXN3 protein; in test [1]) was 6.30 to 7.00 in each case. This compound showed a negative-log EC50 (pEC50) in the test with ATXN3-HiBiT protein of 6.30 to 7.00.
